For three compounds, inhibition and IC50 results are on record in ChEMBL document CHEMBL5370573, “Isolation of Hydrazide-alkenes with Different Amino Acid Origins from an Azoxy-alkene-Producing Mutant of Streptomyces rochei 7434AN4” (J Nat Prod, 2023).

≈ marks a conversion by molar mass, not a printed value.

Test [1] is described as follows: Inhibition of quorum sensing system in Chromobacterium violaceum CV026 assessed as reduction in violacein production at 1 mg/ml measured after 24 hrs relative to control.
Test [2] is described as follows: Inhibition of quorum sensing system in Chromobacterium violaceum CV026 assessed as reduction in violacein production measured after 24 hrs.

On to `CCCC/C=C\NN(C(C)=O)C(=O)C(C)CC` (stereo not drawn), for which, in test [1], the inhibition (usually the percentage by which the read-out fell short of the control) was 40%.
Turning to `CCCC/C=C\[N+]([O-])=N\[C@H](C)[C@H](O)CO`, the IC50 (usually the point on the concentration scale where inhibition reaches its midpoint) in test [2] was 750 µg/mL (≈ 3.47 mM).
Regarding `CCCC/C=C\NN(C(C)=O)C(=O)C(C)C`, the inhibition in test [1] amounted to 40%.
